Assay results taken from ChEMBL document CHEMBL4507291 (2021).

Legend:
[1] = test system: Tyrosine-protein kinase ABL1 (Homo sapiens), P00519 [F317I]
[2] = target: Tyrosine-protein kinase BTK (Homo sapiens) (UniProt Q06187)
[3] = target: Calcium/calmodulin-dependent protein kinase type IV (Homo sapiens) (UniProt Q16566)
[4] = target: Cyclin-dependent kinase 4 (Homo sapiens) (UniProt P11802)
[5] = target: Cyclin-dependent kinase 4 (Homo sapiens) (UniProt P11802); remark: listed apart in the source
[6] = target: Cyclin-dependent kinase-like 2 (Homo sapiens) (UniProt Q92772)
[7] = target: Casein kinase I isoform delta (Homo sapiens) (UniProt P48730)
[8] = target: Dual specificity tyrosine-phosphorylation-regulated kinase 2 (Homo sapiens) (UniProt Q92630)
[9] = test system: Epidermal growth factor receptor (Homo sapiens), P00533 [UNDEFINED MUTATION]
[10] = test system: Epidermal growth factor receptor (Homo sapiens), P00533 [UNDEFINED MUTATION]; remark: listed apart in the source
[11] = test system: Receptor-type tyrosine-protein kinase FLT3 (Homo sapiens), P36888 [UNDEFINED MUTATION]
[12] = target: Mitogen-activated protein kinase kinase kinase kinase 1 (Homo sapiens) (UniProt Q92918)
[13] = target: LIM domain kinase 2 (Homo sapiens) (UniProt P53671)
[14] = target: Mitogen-activated protein kinase kinase kinase 13 (Homo sapiens) (UniProt O43283)
[15] = target: Serine/threonine-protein kinase MAK (Homo sapiens) (UniProt P20794)
[16] = target: Mitogen-activated protein kinase kinase kinase kinase 3 (Homo sapiens) (UniProt Q8IVH8)
[17] = target: Serine/threonine-protein kinase MARK2 (Homo sapiens) (UniProt Q7KZI7)
[18] = target: Hepatocyte growth factor receptor (Homo sapiens) (UniProt P08581)
[19] = target: Myosin light chain kinase, smooth muscle (Homo sapiens) (UniProt Q15746)
[20] = target: T1, Mitogen-activated protein kinase 12 (Homo sapiens) (UniProt P53778)
T1 sequence (whole entry): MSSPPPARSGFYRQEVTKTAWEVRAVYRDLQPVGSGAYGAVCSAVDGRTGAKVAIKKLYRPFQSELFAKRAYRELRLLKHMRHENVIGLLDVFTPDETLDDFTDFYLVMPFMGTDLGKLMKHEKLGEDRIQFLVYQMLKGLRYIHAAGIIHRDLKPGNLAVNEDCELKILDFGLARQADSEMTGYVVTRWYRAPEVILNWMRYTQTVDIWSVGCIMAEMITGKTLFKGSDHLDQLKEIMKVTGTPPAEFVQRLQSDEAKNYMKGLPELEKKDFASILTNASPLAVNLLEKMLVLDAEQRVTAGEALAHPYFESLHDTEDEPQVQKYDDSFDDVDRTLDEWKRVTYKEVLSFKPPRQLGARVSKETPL

[21] = test system: Phosphatidylinositol 4,5-bisphosphate 3-kinase catalytic subunit alpha isoform (Homo sapiens), P42336 [H1047L]
[22] = target: Serine/threonine-protein kinase PLK1 (Homo sapiens) (UniProt P53350)
[23] = target: Rho-associated protein kinase 1 (Homo sapiens) (UniProt Q13464)
[24] = target: Ribosomal protein S6 kinase alpha-1 (Homo sapiens) (UniProt Q15418)
[25] = target: SRSF protein kinase 1 (Homo sapiens) (UniProt Q96SB4)
[26] = target: T2, Tyrosine-protein kinase Tec (Homo sapiens) (UniProt P42680)
T2 sequence (whole entry): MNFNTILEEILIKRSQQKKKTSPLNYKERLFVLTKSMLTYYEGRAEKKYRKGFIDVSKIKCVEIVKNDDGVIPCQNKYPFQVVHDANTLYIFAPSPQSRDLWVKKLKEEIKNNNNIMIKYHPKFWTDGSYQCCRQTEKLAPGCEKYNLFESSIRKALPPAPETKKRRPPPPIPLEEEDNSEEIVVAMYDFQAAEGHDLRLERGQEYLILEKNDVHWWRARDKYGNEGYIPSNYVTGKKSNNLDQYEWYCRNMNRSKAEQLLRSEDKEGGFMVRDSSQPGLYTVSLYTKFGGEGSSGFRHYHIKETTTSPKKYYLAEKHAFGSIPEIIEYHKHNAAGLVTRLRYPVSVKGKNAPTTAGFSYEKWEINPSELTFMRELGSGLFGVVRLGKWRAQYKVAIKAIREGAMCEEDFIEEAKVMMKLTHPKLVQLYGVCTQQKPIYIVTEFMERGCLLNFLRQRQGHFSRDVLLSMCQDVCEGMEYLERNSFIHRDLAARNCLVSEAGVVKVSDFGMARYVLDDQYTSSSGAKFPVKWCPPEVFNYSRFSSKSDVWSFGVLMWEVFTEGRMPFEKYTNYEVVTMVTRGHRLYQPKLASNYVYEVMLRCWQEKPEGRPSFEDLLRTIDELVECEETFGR

[27] = target: Activated CDC42 kinase 1 (Homo sapiens) (UniProt Q07912)
[28] = target: Serine/threonine-protein kinase TNNI3K (Homo sapiens) (UniProt Q59H18)
[29] = target: High affinity nerve growth factor receptor (Homo sapiens) (UniProt P04629)
[30] = target: Non-receptor tyrosine-protein kinase TYK2 (Homo sapiens) (UniProt P29597)
[31] = Compound concentration 1000.0 nM
[32] = Compound concentration 100.0 nM

Cyclin-dependent kinase 4 (Homo sapiens), sequence (P11802 whole entry): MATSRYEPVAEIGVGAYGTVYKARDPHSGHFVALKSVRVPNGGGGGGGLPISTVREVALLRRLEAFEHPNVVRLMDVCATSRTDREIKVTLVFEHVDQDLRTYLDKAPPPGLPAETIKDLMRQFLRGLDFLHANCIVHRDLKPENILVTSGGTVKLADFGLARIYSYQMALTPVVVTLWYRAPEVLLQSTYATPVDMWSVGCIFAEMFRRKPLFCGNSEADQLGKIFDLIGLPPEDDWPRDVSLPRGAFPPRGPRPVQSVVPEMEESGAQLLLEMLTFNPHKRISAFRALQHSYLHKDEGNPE
Epidermal growth factor receptor (Homo sapiens), P00533 [UNDEFINED MUTATION], sequence (P00533 whole entry, looked up, change not shown): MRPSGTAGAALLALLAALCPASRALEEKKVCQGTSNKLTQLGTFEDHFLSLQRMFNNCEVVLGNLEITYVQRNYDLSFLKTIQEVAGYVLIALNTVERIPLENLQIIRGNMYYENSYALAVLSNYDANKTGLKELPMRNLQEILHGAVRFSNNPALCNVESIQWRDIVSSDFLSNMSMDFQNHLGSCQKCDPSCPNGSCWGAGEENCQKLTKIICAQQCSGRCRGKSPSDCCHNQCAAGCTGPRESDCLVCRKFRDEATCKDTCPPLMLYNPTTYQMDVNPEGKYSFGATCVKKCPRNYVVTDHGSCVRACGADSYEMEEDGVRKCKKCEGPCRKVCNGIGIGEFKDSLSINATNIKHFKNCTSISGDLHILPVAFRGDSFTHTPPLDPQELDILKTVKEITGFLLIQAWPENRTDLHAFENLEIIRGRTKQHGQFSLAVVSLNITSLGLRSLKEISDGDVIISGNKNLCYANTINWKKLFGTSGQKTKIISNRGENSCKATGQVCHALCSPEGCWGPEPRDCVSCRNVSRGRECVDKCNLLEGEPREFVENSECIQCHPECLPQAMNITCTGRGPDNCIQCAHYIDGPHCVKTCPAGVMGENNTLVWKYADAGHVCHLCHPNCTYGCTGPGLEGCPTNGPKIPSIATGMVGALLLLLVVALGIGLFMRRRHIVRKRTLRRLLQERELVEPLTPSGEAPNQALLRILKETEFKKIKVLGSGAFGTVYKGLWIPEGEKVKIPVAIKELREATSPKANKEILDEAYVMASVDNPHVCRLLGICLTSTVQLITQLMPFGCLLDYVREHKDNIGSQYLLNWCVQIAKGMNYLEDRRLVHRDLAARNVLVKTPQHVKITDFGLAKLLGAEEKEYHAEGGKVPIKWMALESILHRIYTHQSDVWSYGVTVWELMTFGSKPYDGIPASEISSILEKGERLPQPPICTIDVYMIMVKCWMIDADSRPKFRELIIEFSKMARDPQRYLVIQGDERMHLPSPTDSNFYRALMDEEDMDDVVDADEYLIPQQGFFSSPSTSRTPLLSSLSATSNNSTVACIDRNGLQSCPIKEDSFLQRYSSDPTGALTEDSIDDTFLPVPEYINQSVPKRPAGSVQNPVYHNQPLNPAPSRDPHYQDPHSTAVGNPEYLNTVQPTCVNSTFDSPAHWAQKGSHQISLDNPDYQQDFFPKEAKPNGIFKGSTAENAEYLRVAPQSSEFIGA
Hepatocyte growth factor receptor (Homo sapiens), sequence (P08581 whole entry): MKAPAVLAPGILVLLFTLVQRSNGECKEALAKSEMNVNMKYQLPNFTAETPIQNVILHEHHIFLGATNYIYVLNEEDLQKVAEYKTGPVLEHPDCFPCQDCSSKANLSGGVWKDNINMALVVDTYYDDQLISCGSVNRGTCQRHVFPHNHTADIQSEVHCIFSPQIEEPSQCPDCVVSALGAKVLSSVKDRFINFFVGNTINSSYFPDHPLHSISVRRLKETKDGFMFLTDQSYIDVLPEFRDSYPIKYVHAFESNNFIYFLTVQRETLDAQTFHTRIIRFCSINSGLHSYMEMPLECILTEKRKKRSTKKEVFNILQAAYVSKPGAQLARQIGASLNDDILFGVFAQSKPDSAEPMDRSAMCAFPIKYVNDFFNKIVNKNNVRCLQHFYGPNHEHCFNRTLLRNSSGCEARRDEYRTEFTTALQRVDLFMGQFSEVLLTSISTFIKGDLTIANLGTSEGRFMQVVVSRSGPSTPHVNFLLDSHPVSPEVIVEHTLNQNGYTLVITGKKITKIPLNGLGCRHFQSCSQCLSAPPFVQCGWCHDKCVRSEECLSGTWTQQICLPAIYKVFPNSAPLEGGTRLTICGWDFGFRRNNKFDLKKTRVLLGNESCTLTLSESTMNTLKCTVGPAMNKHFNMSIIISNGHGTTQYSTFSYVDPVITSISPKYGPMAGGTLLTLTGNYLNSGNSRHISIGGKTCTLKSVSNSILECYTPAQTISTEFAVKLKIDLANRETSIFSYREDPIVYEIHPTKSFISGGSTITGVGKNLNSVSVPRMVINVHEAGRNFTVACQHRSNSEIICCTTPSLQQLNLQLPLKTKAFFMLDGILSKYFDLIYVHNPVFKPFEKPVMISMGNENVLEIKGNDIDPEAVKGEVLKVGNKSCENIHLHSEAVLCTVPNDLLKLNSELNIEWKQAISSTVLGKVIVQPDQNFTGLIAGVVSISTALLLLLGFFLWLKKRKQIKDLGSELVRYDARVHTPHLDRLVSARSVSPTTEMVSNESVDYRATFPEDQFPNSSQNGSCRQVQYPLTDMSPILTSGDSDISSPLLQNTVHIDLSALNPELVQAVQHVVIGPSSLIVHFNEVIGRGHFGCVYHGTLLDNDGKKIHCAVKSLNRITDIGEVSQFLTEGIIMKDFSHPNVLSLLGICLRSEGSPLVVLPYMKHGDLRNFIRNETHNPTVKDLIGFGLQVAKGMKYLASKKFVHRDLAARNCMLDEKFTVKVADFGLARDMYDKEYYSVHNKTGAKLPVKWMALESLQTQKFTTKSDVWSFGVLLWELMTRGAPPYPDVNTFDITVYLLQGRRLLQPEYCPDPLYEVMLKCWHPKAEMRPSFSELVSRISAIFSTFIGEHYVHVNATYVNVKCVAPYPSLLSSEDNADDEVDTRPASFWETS
Casein kinase I isoform delta (Homo sapiens), sequence (P48730 whole entry, looked up, canonical isoform): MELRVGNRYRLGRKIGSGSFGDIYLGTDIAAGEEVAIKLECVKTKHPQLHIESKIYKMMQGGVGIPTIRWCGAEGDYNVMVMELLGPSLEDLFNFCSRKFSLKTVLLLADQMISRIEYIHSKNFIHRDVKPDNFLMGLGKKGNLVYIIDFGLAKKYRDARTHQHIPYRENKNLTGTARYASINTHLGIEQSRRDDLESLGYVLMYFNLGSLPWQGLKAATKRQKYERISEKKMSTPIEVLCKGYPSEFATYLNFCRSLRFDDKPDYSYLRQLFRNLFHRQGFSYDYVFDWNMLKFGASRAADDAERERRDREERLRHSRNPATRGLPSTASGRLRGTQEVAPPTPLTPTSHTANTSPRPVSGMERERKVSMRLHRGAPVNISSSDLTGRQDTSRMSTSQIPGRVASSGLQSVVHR
Ribosomal protein S6 kinase alpha-1 (Homo sapiens), sequence (Q15418 whole entry): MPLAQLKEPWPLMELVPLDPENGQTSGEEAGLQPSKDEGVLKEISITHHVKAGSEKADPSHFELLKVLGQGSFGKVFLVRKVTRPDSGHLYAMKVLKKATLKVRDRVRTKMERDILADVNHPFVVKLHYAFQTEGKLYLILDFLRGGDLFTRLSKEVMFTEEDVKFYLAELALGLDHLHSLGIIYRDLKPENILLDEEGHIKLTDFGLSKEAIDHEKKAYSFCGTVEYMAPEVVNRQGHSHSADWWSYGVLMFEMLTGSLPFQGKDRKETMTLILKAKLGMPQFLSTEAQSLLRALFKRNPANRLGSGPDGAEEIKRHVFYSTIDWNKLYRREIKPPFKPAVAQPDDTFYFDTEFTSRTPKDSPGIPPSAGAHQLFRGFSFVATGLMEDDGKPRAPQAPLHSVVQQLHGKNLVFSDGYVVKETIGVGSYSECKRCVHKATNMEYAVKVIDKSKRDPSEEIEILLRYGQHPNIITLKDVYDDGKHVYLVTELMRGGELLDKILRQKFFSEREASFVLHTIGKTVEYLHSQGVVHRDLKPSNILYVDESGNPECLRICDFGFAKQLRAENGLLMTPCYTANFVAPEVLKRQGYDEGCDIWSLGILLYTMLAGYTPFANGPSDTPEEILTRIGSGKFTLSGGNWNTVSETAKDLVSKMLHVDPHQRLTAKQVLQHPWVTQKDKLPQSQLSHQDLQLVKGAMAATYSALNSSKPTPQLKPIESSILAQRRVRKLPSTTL
Mitogen-activated protein kinase kinase kinase 13 (Homo sapiens), sequence (O43283 whole entry): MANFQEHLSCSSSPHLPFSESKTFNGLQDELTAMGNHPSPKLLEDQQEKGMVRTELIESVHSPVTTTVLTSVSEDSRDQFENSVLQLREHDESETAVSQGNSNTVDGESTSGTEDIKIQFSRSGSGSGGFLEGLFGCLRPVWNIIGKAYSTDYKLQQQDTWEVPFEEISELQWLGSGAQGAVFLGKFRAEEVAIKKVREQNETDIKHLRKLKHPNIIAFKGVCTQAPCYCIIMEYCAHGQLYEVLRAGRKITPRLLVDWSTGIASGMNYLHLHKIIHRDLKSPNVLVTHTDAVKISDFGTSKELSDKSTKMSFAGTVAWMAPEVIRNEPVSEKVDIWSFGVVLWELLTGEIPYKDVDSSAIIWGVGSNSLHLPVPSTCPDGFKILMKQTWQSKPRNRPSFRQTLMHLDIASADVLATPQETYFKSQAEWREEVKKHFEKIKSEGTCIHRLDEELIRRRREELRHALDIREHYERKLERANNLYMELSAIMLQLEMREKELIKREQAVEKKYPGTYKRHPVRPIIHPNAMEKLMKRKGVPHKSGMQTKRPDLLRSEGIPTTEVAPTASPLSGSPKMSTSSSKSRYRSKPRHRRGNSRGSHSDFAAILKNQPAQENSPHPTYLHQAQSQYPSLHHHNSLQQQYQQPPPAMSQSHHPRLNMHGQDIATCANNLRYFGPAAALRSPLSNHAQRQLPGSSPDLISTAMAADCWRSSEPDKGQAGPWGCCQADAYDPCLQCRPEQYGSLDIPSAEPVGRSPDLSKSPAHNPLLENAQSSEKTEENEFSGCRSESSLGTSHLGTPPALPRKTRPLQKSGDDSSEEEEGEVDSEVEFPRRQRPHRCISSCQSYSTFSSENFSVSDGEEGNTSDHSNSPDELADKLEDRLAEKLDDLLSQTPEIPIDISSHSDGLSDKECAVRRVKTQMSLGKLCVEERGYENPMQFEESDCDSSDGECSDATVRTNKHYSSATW

## C[C@@H]1CN(c2cc(-c3nn(C)c4ccc(OC5(C)CC5)cc34)ncn2)C[C@H](C)O1 [MLi-2-NC]
[1]; [31]
  residual activity: 62%
[2]; [31]
  residual activity: 80%
[3]; [31]
  residual activity: 67%
[4]; [31]
  residual activity: 91%
[5]; [31]
  residual activity: 71%
[6]; [31]
  residual activity: 100%
[7]; [31]
  residual activity: 84%
[8]; [31]
  residual activity: 83%
[9]; [31]
  residual activity: 100%
[10]; [31]
  residual activity: 92%
[11]; [31]
  residual activity: 88%
[12]; [31]
  residual activity: 100%
[13]; [31]
  residual activity: 92%
[14]; [31]
  residual activity: 91%
[15]; [31]
  residual activity: 100%
[16]; [31]
  residual activity: 100%
[17]; [31]
  residual activity: 89%
[18]; [31]
  residual activity: 100%
[19]; [31]
  residual activity: 64%
[20]; [31]
  residual activity: 100%
[21]; [31]
  residual activity: 83%
[22]; [31]
  residual activity: 74%
[23]; [31]
  residual activity: 100%
[24]; [31]
  residual activity: 100%
[25]; [31]
  residual activity: 88%
[26]; [31]
  residual activity: 100%
[27]; [31]
  residual activity: 96%
[28]; [31]
  residual activity: 71%
[29]; [31]
  residual activity: 76%
[30]; [31]
  residual activity: 51%

## C[C@@H]1CN(c2cc(-c3n[nH]c4ccc(OC5(C)CC5)cc34)ncn2)C[C@H](C)O1 [MLi-2]
[1]; [32]
  residual activity: 74%
[2]; [32]
  residual activity: 73%
[3]; [32]
  residual activity: 78%
[4]; [32]
  residual activity: 71%
[5]; [32]
  residual activity: 97%
[6]; [32]
  residual activity: 100%
[7]; [32]
  residual activity: 80%
[8]; [32]
  residual activity: 98%
[9]; [32]
  residual activity: 51%
[10]; [32]
  residual activity: 69%
[11]; [32]
  residual activity: 75%
[12]; [32]
  residual activity: 84%
[13]; [32]
  residual activity: 91%
[14]; [32]
  residual activity: 0%
[15]; [32]
  residual activity: 95%
[16]; [32]
  residual activity: 88%
[17]; [32]
  residual activity: 100%
[18]; [32]
  residual activity: 100%
[19]; [32]
  residual activity: 56%
[20]; [32]
  residual activity: 96%
[21]; [32]
  residual activity: 87%
[22]; [32]
  residual activity: 68%
[23]; [32]
  residual activity: 80%
[24]; [32]
  residual activity: 97%
[25]; [32]
  residual activity: 100%
[26]; [32]
  residual activity: 74%
[27]; [32]
  residual activity: 79%
[28]; [32]
  residual activity: 78%
[29]; [32]
  residual activity: 73%
[30]; [32]
  residual activity: 81%
